Reference: patent US20150119442A1, “Biocide agents against marine woodborers” (Teredo Marine Protection ApS, priority 2008, published 2015)
Read-outs that look alike come from different tables or passages of the source.

What was measured:
[1] = for Leaching of EDDS, specimen with end sealing / Leaching of EDDS, specimen without end sealing: after one week, mean ± SD
Description: The aim of this example is to show the leaching of EDDS in sea water, as well as the effect of the pH in sea water on the leaching.
Wood specimens were produced by the Danish Technological Institute, and made of sap wood of Pinus sylvestris in the dimension: 15×25×50 mm^3.
The impregnating solution used was an aqueous solution of 5% Octaquest® E30 (Innospec Limited, contains a 30% solution of trisodium-EDDS in water), 5% sodium carbonate and 5% ethanol. pH was adjusted to 4.5 with hydrochloric acid.
Three different sea water solutions were prepared using artificial sea water salt mix (Tropic Marin® Sea Salt) at half the recommended concentration (15 g/L corresponding to a specific gravity of 1010 kg/m^3), normal concentration (30 g/L corresponding to a specific gravity of 1019 kg/m^3) and half concentration with pH adjusted to 6. Specific gravity of sea water in the oceans range between 1020 and 1030 kg/m^3. For each solution six containers were prepared each containing five specimens. Half of the specimens in each solution were end sealed at both ends using Conclad 300 2-K membrane (product no. 5305A, Condor Kemi A/S, Denmark). The end seal was applied to evaluate the radial leaching of the impregnating agent in order to simulate the surfaces exposed in harbour piers.
The specimens were placed in the containers and 500 ml of sea water solution was added to each container.
After one week the water was collected and analysed for EDDS content by HPLC-UV; detection at 254 nm. The method used involved a reverse phase column and online complexing of EDDS with Cu(II)-ions. Quantifications were made from external standards (reference material used was “−30% Na3EDDS in water” from Fluka).

marine woodborers = assay: Protective effectiveness against marine borers, EN 275 harbour exposure; format: in vivo, shipworm; details: 6 months; compared to control subjects
Protocol: The guidelines and recommendations in EN 275: 1992—Wood preservatives—Determination of the protective effectiveness against marine borers were followed unless otherwise stated.
Wood specimens were made of sapwood of Pinus sylvestris in the dimensions: 200×75×25 mm3, with a hole ø25 mm in the centre. The specimens were produced by the Danish Technological Institute.
The biocide-impregnating solution was prepared in different compositions according to Table 4. pH was adjusted with hydrochloric acid, and 10 specimens were used for each composition of biocide-impregnating solution and each harbour exposure site.
The specimens were attached to test racks and placed in two different harbours in Denmark: Skagen (northern part of Jutland) and Rudkøbing (Langeland) on 26 and 24 Apr. 2007, respectively (FIG. 1). The specimens were collected again ˜6 months later on 23 and 25 Oct. 2007, respectively.
The attack by marine borers was evaluated by cutting up the specimen in five pieces and recording the number of borers present and the percentage of the area which they had attacked.

Question: With `O=C(O)C[C@H](NCCN[C@@H](CC(=O)O)C(=O)O)C(=O)O` [EDDS, (S,S)-ethylenediamine-disuccinate] as the compound, how does the Leaching ([1]; all sea water solutions, in seven days) read?
Answer: Its Leaching is “about 30%”.

Question: And the “Leaching from end sealed specimens compared with specimens without end sealing” value ([1]; all three types of sea water)?
Answer: The value was “significantly lower”.

Question: What about the “Leaching of EDDS, specimen with end sealing” value (“Leaching … with end sealing” for short) ([1]; sea water normal conc.) of the same compound?
Answer: The value was 26.48 ± 0.92%.

Question: And the “Leaching of EDDS, specimen without end sealing” value ([1]; sea water normal conc.)?
Answer: Its value is 33.56 ± 0.62%.

Question: And the “Leaching … with end sealing” value ([1]; sea water ½ conc. pH 6)?
Answer: The value was 30.07 ± 0.70%.

Question: What about the “Leaching of EDDS, specimen without end sealing” value ([1]; sea water ½ conc. pH 6) of the same compound?
Answer: Its value is 36.14 ± 0.89%.

Question: And the “Leaching … with end sealing” value ([1]; sea water ½ conc.)?
Answer: Its value is 32.08 ± 1.01%.

Question: What about the “Leaching of EDDS, specimen without end sealing” value ([1]; sea water ½ conc.) of the same compound?
Answer: Its value is 34.08 ± 0.59%.

Question: What about the “Effectiveness against attack of shipworm” value (marine woodborers) of the same compound?
Answer: The value was “effective”.
